Measurements from US20140079836A1, “METHODS AND COMPOSITIONS FOR ALTERING HEALTH, WELLBEING, AND LIFESPAN” (LifeSpan Extension, LLC, priority 2008, published 2014).

Key:
[1] = tested on: genes involved in longevity (Array 1); assay: Custom RT-PCR microarray (Array 1) gene expression in skin fibroblasts, UVB/UVA1; type: cell-based, human; details: donor three IDE + UVB vs. Green tea + UVB Continuous Incubation; for PPC gene expression fold change / RTC gene expression fold change: control well
Description: Seeding of cells: On Day 1, each cell culture was seeded into 6 well cluster dishes at ˜1.5×10^5 cells in 4 mls medium per well. Three wells were seeded per test condition or control.
Experimental phase: On Day 3, wells were washed 1× with 2 mls medium, fed back 2 mls medium without fetal bovine serum and preincubated for 30-60 minutes before challenge with test or control conditions. After the preincubation, medium was aspirated from the wells and 2.5 mls of test or control condition in medium with 1% fetal bovine serum was pipetted into the appropriate wells.
(3) UVA1, UVB exposed and unexposed cells without test condition were used as controls. The experimental phase ended at 24 hours post UV exposure. Cells from each test and control parameter were then prepped for RNA isolation as described below.
UVB/UVA1 exposure: Cells exposed to UV received 200 mJ/cm^2 UVB/1 MED UVA1 using Thermo Oriel solar simulator model SP66923-3056. Cells were exposed from the bottom of the culture dish. The UV dose delivered to the cells was adjusted for interference from the plastic in the culture dish.
Preparation of RNA: The RNA was isolated using the Qiagen RNEasy Plus Mini Kit according to the manufacturer's protocol which can be found on the World Wilde Web at qiagen.com/literature/Defaultaspx?Term=&Language=EN&LiteratureType=4& ProductCategory=10162. The RNA was quantified and examined for purity using the 260/280 nm read method in a μ Quant spectrophotometer before use in the array.
Creation and Performance of a Custom Microarray (“Array 1”): Through the Custom Array design service of Superarray Bioscience Corporation, a 96 well RT-PCR microarray (“Array 1”) was developed to illustrate genetic responses in cells treated as above for specific genes involved in longevity as well as the relevant quality controls. The array was performed in compliance with manufacturer's guidelines and by recommended manufacturer's protocol as can be found on the World Wilde Web at superarray.com/Manual/perarrayplate.pdf
(§1) Custom Microarray Results: The results from the microarrays were determined using the delta CT method which uses comparisons of control genes and threshold cycles of genes of interest to generate relative expression values. The full set of experimental conditions was cross referenced and the data is provided herewith in DATA TABLE 3.
Preparation of RNA: The RNA was isolated using the Qiagen RNEasy Plus Mini Kit according to the manufacturer's protocol which can be found on the World Wide Web at qiagen.com/literature/Default. aspx?Term=&Language=EN&LiteratureType=4&ProductCategory=10162.
The RNA was quantified and examined for purity using the 260/280 nm read method in a μ Quant spectrophotometer before use in the array.
Creation and Performance of the Custom Microarray: Through the Custom Array design service of Superarray Bioscience Corporation, a 96 well RT-PCR Microarray was developed to illustrate genetic responses in cells treated as above for specific genes involved in longevity as well as the relevant quality controls. The array was performed in compliance with manufacturer's guidelines and by recommended manufacturer's protocol as can be found on the World Wide Web at superarray.com/Manual/perarrayplate.pdf.
as §1, with “4.” for “3.”
as §1, with “5. […]” for “3.”

custom array genes = assay: Chlorogenic acid challenge, custom RT-PCR microarray, dermal fibroblasts ag07999; type: cell-based, human; details: 24 hours
Description: Human dermal fibroblasts (ag07999) were seeded at near confluency in 6-well dishes in 4 ml MEM, 10% FBS/well. 24 hours after seeding, wells were aspirated and 3 ml chlorogenic acid dilution in MEM, 1% FBS added, or MEM, 1% FBS only for control wells. Chlorogenic acid (Acros Organics, Geel, Belgium) dilutions used were: 0.005%, 0.0005%, 0.00005%, 0.000005% and 0.0000005%. 24 hours after chlorogenic acid challenge, wells were aspirated, 1 ml trypsin-EDTA added to each well, swirled and aspirated. Trypsin-EDTA was again added to each well and cells retrieved with MEM 10% FBS when released from the substratum and centrifuged to a pellet.
RNA was collected from the harvested cells according to protocol using RT2 qPCR-Grade RNA Isolation Kit from SABiosciences Co. The RNA was then used to create cDNA (using a First Strand Synthesis Kit, SABiosciences, and following the manufacturer's instructions) and run on the BioRad iCycler RT-PCR machine using Custom RT-PCR Microarray (CAPH09464A, SABiosciences) (Array 1) and SYBR Green Reaction Mix (SABiosciences). Data from Example 16 are shown in FIG. 19; additional results are described and analyzed below.

With `COC1=C(OC)C(=O)C(CCCCCCCCCCO)=C(C)C1=O` [IDE] the “ACE gene expression fold change” value [1] was −1.13, the “ACTB gene expression fold change” value [1] was −2.17 and the “APOE gene expression fold change” value [1] was 2.43. For the same compound, the “BAX gene expression fold change” value [1] was −1.01, the “BCL2 gene expression fold change” value [1] was 2.04 and the “CASP2 gene expression fold change” value [1] was −1.96. The “CASP9 gene expression fold change” value [1] was 2.11, the “CCL4L1 gene expression fold change” value [1] was 16.91 and the “CLK1 gene expression fold change” value [1] was 1.02. The “COX1 gene expression fold change” value [1] was 1.17, the “CREBBP gene expression fold change” value [1] was 1.49 and the “CYP19A1 gene expression fold change” value [1] was 24.76. The “DDC gene expression fold change” value [1] was 58.89, the “GAPDH gene expression fold change” value [1] was −2.10 and the “GH1 gene expression fold change” value [1] was 17.51. The “HIGX1A gene expression fold change” value [1] was 40.22, the “HLA-DRA gene expression fold change” value [1] was 65.34 and the “HPRT1 gene expression fold change” value [1] was 1.30. The “HSPA1A gene expression fold change” value [1] was −1.54, the “HSPA1B gene expression fold change” value [1] was −2.03 and the “HSPA1L gene expression fold change” value [1] was −1.39. For the same compound, the “IFI44 gene expression fold change” value [1] was 1.09, the “IGF1 gene expression fold change” value [1] was 4.23 and the “IGF2 gene expression fold change” value [1] was −1.16. For the same compound, the “IL1A gene expression fold change” value [1] was 10.41, the “IL6 gene expression fold change” value [1] was −1.25 and the “IL10 gene expression fold change” value [1] was 3.20. For the same compound, the “KRAS gene expression fold change” value [1] was 1.21, the “MAPK14 gene expression fold change” value [1] was −1.39 and the “NADSYN1 gene expression fold change” value [1] was −2.33. The “NFKB1 gene expression fold change” value [1] was −1.13, the “NOS2A gene expression fold change” value [1] was 40.22 and the “PARP1 gene expression fold change” value [1] was −2.68. For the same compound, the “PARP2 gene expression fold change” value [1] was 22.32, the “PPARG gene expression fold change” value [1] was 5.39 and the “PTGS2 gene expression fold change” value [1] was 3.68. For the same compound, the “SHC1 gene expression fold change” value [1] was −1.54, the “SIRT1 gene expression fold change” value [1] was 1.39 and the “SOD1 gene expression fold change” value [1] was −2.03. The “SOD2 gene expression fold change” value [1] was −1.13, the “TEP1 gene expression fold change” value [1] was 1.06 and the “TERT gene expression fold change” value [1] was 3.56. For the same compound, the “TNF gene expression fold change” value [1] was 16.91, the “TP53 gene expression fold change” value [1] was 1.39 and the “PPC gene expression fold change” value ([1]; entry r305) was −1.48. The “RTC gene expression fold change” value ([1]; entry r306) was 1.09, the “PPC gene expression fold change” value ([1]; entry r311) was −1.77 and the “RTC gene expression fold change” value ([1]; entry r312) was −3.29.
With `O=C(/C=C/c1ccc(O)c(O)c1)O[C@@H]1C[C@](O)(C(=O)O)C[C@@H](O)[C@H]1O` [chlorogenic acid, -[[3-(3,4-Dihydroxyphenyl)-1-oxo-2-propenyl]oxy]-1,4,5-trihydroxycyclohexanecarboxylic acid] the IFI44 relative expression (custom array genes; FIG. 17) was “may significantly decrease expression”, the “expression of genes in the mitochondrial function/biogenesis pathway” value (custom array genes; FIG. 21a) was “primarily decreases gene expression” and the PTGS2 relative expression (custom array genes; at higher concentrations, FIG. 16) was “significant decrease in PTGS2 gene expression”. For the same compound, the NOS2A relative expression (custom array genes; increasing concentrations, FIG. 13) was “biphasic response”, the SIRT1 relative expression (custom array genes; increasing concentrations, FIG. 14) was “entirely decreasing expression” and the CCL4L1 relative expression (custom array genes; middle dosage (0.00005%), FIG. 11) was “marked repression”.
